For 47 compounds, EC50 results are on record in US8778923B2, “GLP-1 receptor modulators” (Receptos, Inc., priority 2011, dated 2014).

Molecules are shown by their SMILES. Structures can show the parent of a compound that is named as a salt.

T1 sequence (P43220 24-463): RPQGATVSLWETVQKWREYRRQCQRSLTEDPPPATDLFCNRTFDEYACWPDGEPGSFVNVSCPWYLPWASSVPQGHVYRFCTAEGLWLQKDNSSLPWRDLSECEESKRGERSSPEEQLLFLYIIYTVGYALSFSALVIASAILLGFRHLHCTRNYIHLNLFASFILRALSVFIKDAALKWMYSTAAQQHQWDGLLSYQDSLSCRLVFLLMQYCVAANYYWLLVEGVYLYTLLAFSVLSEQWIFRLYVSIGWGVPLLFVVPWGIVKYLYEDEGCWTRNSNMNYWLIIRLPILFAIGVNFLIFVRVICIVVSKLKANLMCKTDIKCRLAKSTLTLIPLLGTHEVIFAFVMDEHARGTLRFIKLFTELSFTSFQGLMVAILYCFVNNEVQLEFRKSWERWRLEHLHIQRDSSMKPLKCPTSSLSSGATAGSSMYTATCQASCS
T1 sequence (P01275 100-127 partner limits assumed): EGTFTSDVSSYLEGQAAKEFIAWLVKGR

The assay concerns the target T1, GLP-1R (Homo sapiens, UniProt P43220).
T1 construct: host or cells: CRE-bla CHO-K1
In words: EC20 GLP-1(9-36) PAM cAMP assay: dose response of compound in the presence of fixed concentration of GLP-1(9-36). Type of assay: cell-based. As to conditions: GLP-1R CRE-bla CHO-K1 cells, compound dose response in presence of fixed concentration of GLP-1(9-36). The method in brief:
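Positive allosteric modulation read as cAMP rise: 12-point compound titration combined with a fixed EC20 level of GLP-1(9-36) on GLP-1R CHO-K1 cells, IBMX present, 30 min at 37 °C. Luminescent HitHunter signal converted to cAMP; nonlinear fit gave EC50 and Emax.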
`CCCCCCCn1nnnc1-c1cnc(-c2ccc(C[C@H](NC(=O)c3ccc(C(C)(C)C)cc3)C(=O)O)cc2)nc1` [Compound 255]: the half-maximal effective concentration (EC50) is 5000 to 10000 nM. For `CCCCCCOC1=NCc2cc(-c3cnc(-c4ccc(C[C@H](NC(=O)c5ccc(C(C)(C)C)cc5)C(=O)O)cc4)nc3)ccc21` [Compound 256], the EC50 is 5000 to 10000 nM. Consider `CCCCCCOc1ccc(-c2cnc(-c3ccc(C[C@H](NC(=O)c4ccc(C(C)(C)C)cc4)C(=O)O)cc3)nc2)cn1` [Compound 257], for which the concentration giving a half-maximal response (EC50) was 800 to 2500 nM.

In the case of `CC(C)(C)c1ccc(C(=O)N[C@@H](Cc2ccc(-c3ncc(OCc4ccccc4)cn3)cc2)C(=O)O)cc1` [Compound 258], the concentration for a half-maximal effect (EC50) was in the range of 5000 to 10000 nM. Under `CCCCCCCCOc1ccc(-c2cnc(-c3ccc(C[C@H](NC(=O)c4ccc(C(C)(C)C)s4)C(=O)O)cc3)nc2)cc1` [Compound 259] stands 800 to 2500 nM; under `CCCCCCCCCOc1ccc(-c2cnc(-c3ccc(C[C@H](NC(=O)c4ccc(C(C)(C)C)s4)C(=O)O)cc3)nc2)cc1` [Compound 260], < 800 nM. On to `CCCCCCCOc1ccc(N2CCN(c3ccc(C[C@H](NC(=O)c4ccc(C(C)(C)C)cc4)C(=O)O)cc3)CC2=O)cc1` [Compound 261], for which the EC50 was in the range of 2500 to 5000 nM. On to `CCCCCCCOc1ccc(N2CCN(c3ccc(C[C@H](NC(=O)c4ccc(C(C)(C)C)s4)C(=O)O)cc3)C2=O)cc1` [Compound 262], for which the EC50 lay in the range of 2500 to 5000 nM.

Consider `CCCCCCCOc1ccc(N2CCC(Nc3ccc(C[C@H](NC(=O)c4ccc(C(C)(C)C)cc4)C(=O)O)cc3)CC2)cc1` [Compound 263], for which the EC50 is 800 to 2500 nM. Under `CCCCCCCOc1ccc(C2CCN(c3ccc(C[C@H](NC(=O)c4ccc(C(C)(C)C)cc4)C(=O)O)cc3)CC2)cc1` [Compound 264] stands 800 to 2500 nM. For the compound `CCCCCCCOc1ccc(C2CCN(c3ccc(C[C@H](NC(=O)c4ccc(C(C)(C)C)cc4)C(=O)O)cc3)C2)cc1` (some centres unmarked) [Compound 265], the concentration giving a half-maximal response (EC50) was 5000 to 10000 nM. As for `CC(C)(C)c1ccc(C(=O)N[C@@H](Cc2ccc(N3CCN(c4ccc(-c5ccccc5)cc4)CC3)cc2)C(=O)O)cc1` [Compound 266], the EC50 is 5000 to 10000 nM. The result for `CCCCCCCOc1ccc(N2CCN(c3ccc(C[C@H](NC(=O)c4ccc(C(C)(C)C)cc4)C(=O)O)cc3)CC2)cc1` [Compound 267] reads 800 to 2500 nM. On to `CCCCCCCOc1ccc(N2CCCN(c3ccc(C[C@H](NC(=O)c4ccc(C(C)(C)C)cc4)C(=O)O)cc3)CC2)cc1` [Compound 268], for which the EC50 is 800 to 2500 nM. The result for `CCCCCCCOc1ccc(-c2ccc(-c3ccc(C[C@H](NC(=O)c4ccc(C(C)(C)C)cc4)C(=O)O)cc3)nc2)cc1` [Compound 269] reads 800 to 2500 nM; that for `CCCCCCCOc1ccc(-c2ncc(-c3ccc(C[C@H](NC(=O)c4ccc(C(C)(C)C)cc4)C(=O)O)cc3)cn2)cc1` [Compound 271], 800 to 2500 nM; that for `CCCCCCCOc1ccc(-c2cnc(-c3ccc(C[C@H](NC(=O)c4ccc(C(C)(C)C)cc4)C(=O)O)cc3)cn2)cc1` [Compound 272], 800 to 2500 nM. Under `CCCCCCCOc1ccc(-c2cnc(-c3ccc(C[C@H](NC(=O)c4ccc(C(C)(C)C)cc4)C(=O)O)cc3)nn2)cc1` [Compound 274] stands 800 to 2500 nM; under `CCCCCCCOc1ccc(-c2cnc(-c3ccc(C[C@H](NC(=O)c4ccc(C(C)(C)C)cc4)C(=O)NCC(=O)O)cc3)nn2)cc1` [Compound 276], 800 to 2500 nM; under `CCCCCCCOc1ccc(-c2ccc(-c3ccc(C[C@H](NC(=O)c4ccc(C(C)(C)C)s4)C(=O)O)cc3)nc2)cc1` [Compound 277], < 800 nM. Under `CC(C)(C)c1ccc(-c2ccc(-c3ccc(C[C@H](NC(=O)c4ccc(C(C)(C)C)s4)C(=O)O)cc3)nc2)cc1` [Compound 278] stands 2500 to 5000 nM; under `CCCCCCCOc1ccc(-c2ccc(-c3ccc(C[C@H](NC(=O)c4ccc(C(C)(C)C)s4)C(=O)O)cc3)nn2)cc1` [Compound 279], 5000 to 10000 nM. For `CC(C)(C)c1ccc(-c2ccc(-c3ccc(C[C@H](NC(=O)c4ccc(C(C)(C)C)s4)C(=O)O)cc3)nn2)cc1` [Compound 280], the EC50 was in the range of 2500 to 5000 nM. The result for `CCCCCCCOc1ccc(-c2cnc(-c3ccc(C[C@H](NC(=O)c4ccc(C(C)(C)C)s4)C(=O)O)cc3)cn2)cc1` [Compound 281] reads < 800 nM; that for `CC(C)(C)c1ccc(-c2cnc(-c3ccc(C[C@H](NC(=O)c4ccc(C(C)(C)C)s4)C(=O)O)cc3)cn2)cc1` [Compound 282], 800 to 2500 nM. The result for `CCCCCCCOc1ccc(-c2ccc(-c3ccc(C[C@H](NC(=O)c4ccc(C(C)(C)C)s4)C(=O)NCC(=O)O)cc3)nn2)cc1` [Compound 283] reads 5000 to 10000 nM.

`CCCCCCCOc1ccc(-c2cnc(-c3ccc(C[C@H](NC(=O)c4ccc(C(C)(C)C)s4)C(=O)NCC(=O)O)cc3)cn2)cc1` [Compound 284]: the half-maximal effective concentration (EC50) fell in the range of 800 to 2500 nM. The result for `CCCCCCCOc1ccc(-c2ccc(-c3ccc(C[C@H](NC(=O)c4ccc(C(C)(C)C)s4)C(=O)NCC(=O)O)cc3)nc2)cc1` [Compound 285] reads 800 to 2500 nM; that for `CCCCCCCOc1ccc(-c2c[nH]c(-c3ccc(C[C@H](NC(=O)c4ccc(C(C)(C)C)cc4)C(=O)O)cc3)n2)cc1` [Compound 286, (S)-2-(4-(tert-butyl)benzamido)-3-(4-(4-(4-(heptyloxy)phenyl)-1H-imidazol-2-yl)phenyl)propanoic acid hydrochloride], 2500 to 5000 nM; that for `CCCCCCCOc1ccc(-n2cnc(-c3ccc(C[C@H](NC(=O)c4ccc(C(C)(C)C)cc4)C(=O)O)cc3)c2)cc1` [Compound 287, (S)-2-(4-(tert-butyl)benzamido)-3-(4-(1-(4-(heptyloxy)phenyl)-1H-imidazol-4-yl)phenyl)propanoic acid], 5000 to 10000 nM.

With `Cc1ccc(-c2ccc(-n3cc(-c4ccc(C[C@H](NC(=O)c5ccc(C(C)(C)C)cc5)C(=O)O)cc4)cn3)cc2)cc1` [Compound 288, (S)-2-(4-(tert-butyl)benzamido)-3-(4-(1-(4′-methyl-[1,1′-biphenyl]-4-yl)-1H-pyrazol-4-yl)phenyl)propanoic acid], the concentration for a half-maximal effect (EC50) lay within 2500 to 5000 nM.

Regarding `CCCCCCCOc1ccc(-c2cnc(-c3ccc(C[C@@H](CC(=O)O)NC(=O)c4ccc(C(C)(C)C)cc4)cc3)nc2)cc1` [Compound 291, (S)-3-(4-(tert-butyl)benzamido)-4-(4-(5-(4-(heptyloxy)phenyl)pyrimidin-2-yl)phenyl)butanoic acid], the EC50 fell in the range of 800 to 2500 nM. Take `CCCCCCCOc1ccc(-c2cnc(-c3ccc(C[C@H](NC(=O)c4ccc(C(C)(C)C)cc4)C(=O)O)cc3)nc2OC)cc1` [Compound 292, (S)-2-(4-(tert-butyl)benzamido)-3-(4-(5-(4-(heptyloxy)phenyl)-4-methoxypyrimidin-2-yl)phenyl)propanoic acid]: the EC50 is 800 to 2500 nM. Under `CCCCCCCOc1ccc(-c2cnc(-c3ccc(C[C@H](NC(=O)c4ccc(C(C)(C)C)cc4)C(=O)O)cc3)nc2N(C)C)cc1` [Compound 293] stands 2500 to 5000 nM; under `CCCCCCCOc1ccc(-c2cnc(-c3ccc(C[C@H](NC(=O)c4ccc(C(C)(C)C)cc4)C(=O)O)cc3)cc2C)cc1` [Compound 294], 800 to 2500 nM; under `CCCCCCCOc1ccc(-c2cnc(-c3ccc(C[C@H](NC(=O)c4ccc(C(C)(C)C)cc4)C(=O)O)cc3)cc2C(F)(F)F)cc1` [Compound 295], 800 to 2500 nM.

For `CCCCCCCOc1ccc(-c2cnc(-c3ccc(C[C@H](NC(=O)c4coc(C(C)(C)C)n4)C(=O)O)cc3)nc2)cc1` [Compound 296], the half-maximal effective concentration (EC50) was 800 to 2500 nM. With `CCCCCCCOc1ccc(-c2cnc(-c3ccc(C[C@H](NC(=O)c4ccc(C(C)(C)C)cc4)C(=O)NCC(=O)O)cc3)nc2)cc1` [Compound 297, (S)-(2-(4-(tert-butyl)benzamido)-3-(4-(5-(4-(heptyloxy)phenyl)pyrimidin-2-yl)phenyl)propanoyl)glycine], the EC50 is < 800 nM. In the case of `CCCCCCCOc1ccc(-c2cnc(-c3ccc(C[C@H](NC(=O)c4ccc(C(C)(C)C)cc4)C(=O)NCCC(=O)O)cc3)nc2)cc1` [Compound 298, (S)-3-(2-(4-(tert-butyl)benzamido)-3-(4-(5-(4-(heptyloxy)phenyl)pyrimidin-2-yl)phenyl)propanamido)propanoic acid], the EC50 was < 800 nM. Under `CCCCCCCOc1ccc(-c2cnc(-c3ccc(C[C@H](NC(=O)c4ccc(C(C)(C)C)cc4)C(=O)NS(C)(=O)=O)cc3)nc2)cc1` [Compound 299, (S)-4-(tert-butyl)-N-(3-(4 (5 (4 (heptyloxy)phenyl)pyrimidin-2-yl)phenyl)-1-(methylsulfonamido)-1-oxopropan-2-yl)benzamide] stands < 800 nM; under `CCCCCCCOc1ccc(-c2cnc(-c3ccc(C[C@H](NC(=O)c4ccc(C(C)(C)C)cc4)C(=O)N[C@@H](CC(N)=O)C(=O)O)cc3)nc2)cc1` [Compound 300], < 800 nM; under `CCCCCCCOc1ccc(-c2cnc(-c3ccc(C[C@H](NC(=O)c4ccc(C(C)(C)C)cc4)C(=O)NCCCC(=O)O)cc3)nc2)cc1` [Compound 301], 800 to 2500 nM. `CCCCCCCOc1ccc(-c2cnc(-c3ccc(C[C@H](NC(=O)c4ccc(C(C)(C)C)cc4)C(=O)N(C)CCC(=O)O)cc3)nc2)cc1` [Compound 302]: the concentration giving a half-maximal response (EC50) was 2500 to 5000 nM.

For `CCCCCCCOc1ccc(-c2cnc(-c3ccc(C[C@H](NC(=O)c4ccc(C(C)(C)C)cc4)C(=O)NCC(=O)Nc4nn[nH]n4)cc3)nc2)cc1` [Compound 303], the EC50 lay in the range of 800 to 2500 nM. The result for `CCCCCCCOc1ccc(-c2cnc(-c3ccc(C[C@H](NC(=O)c4ccc(C(C)(C)C)cc4)C(=O)N(C)CC(=O)O)cc3)nc2)cc1` [Compound 304] reads 800 to 2500 nM; that for `CCCCCCCOc1ccc(-c2cnc(-c3ccc(C[C@H](NC(=O)c4ccc(C(C)C)cc4)C(=O)N[C@@H](C)C(=O)O)cc3)nc2)cc1` [Compound 305], 800 to 2500 nM; that for `CCCCCCCOc1ccc(-c2cnc(-c3ccc(C[C@H](NC(=O)c4ccc(C(C)C)cc4)C(=O)N[C@@H](CC(N)=O)C(=O)O)cc3)nc2)cc1` [Compound 306], < 800 nM.
